Counter-ions that a name gives are not always drawn.

Data on 17 compounds can be found in patent US6903085B1, “Substituted piperidine compounds useful as modulators of chemokine receptor activity” (AstraZeneca, AB, priority 1999, dated 2005).

`COc1cccc(NC(=O)CNC2CCN(Cc3ccc(Cl)c(Cl)c3)CC2)c1` (as salt: hydrochloride) [Example 104, 2-{[1-(3,4-Dichlorobenzyl)-4-piperidinyl]amino}-N-(3-methoxyphenyl)acetamide, dihydrochloride Salt] yielded a melting point of 274 to 276 °C.

Take `COc1ccc(CNC2CCN(Cc3ccc(Cl)c(Cl)c3)CC2)cc1` (as salt: hydrochloride) [Example 107, N-[1-(3,4-Dichlorobenzyl)-4-piperidinyl]-N-(4-methoxybenzyl)amine, dihydrochloride Salt]: the melting point is above 250 °C.

As for `O=C(CSc1ccc(C(F)(F)F)cn1)NC1CCN(Cc2ccc(Cl)c(Cl)c2)CC1` [Example 94, N-[1-(3,4-Dichlorobenzyl)-4-piperidinyl]-2-{[5-(trifluoromethyl)-2-pyridinyl]sulfanyl}acetamide], the melting point is 98 °C.

As for `Cc1c(CC(=O)NC2CCN(Cc3ccc(Cl)c(Cl)c3)CC2)cnn1-c1ccccc1` [Example 95, N-[1-(3,4-Dichlorobenzyl)-4-piperidinyl]-2-(5-methyl-1-phenyl-1H-pyrazol-4-yl)acetamide], the melting point came to 165 °C.

Regarding `O=C(CCCC(=O)c1ccccc1)NC1CCN(Cc2ccc(Cl)c(Cl)c2)CC1` [Example 96, N-[1-(3,4-Dichlorobenzyl)-4-piperidinyl]-5-oxo-5-phenylpentanamide], the melting point is 130 °C.

`Cc1sc(-c2ccc(Cl)cc2)nc1CC(=O)NC1CCN(Cc2ccc(Cl)c(Cl)c2)CC1` [Example 97, 2-[2-(4-Chlorophenyl)-5-methyl-1,3-thiazol-4-yl]-N-[1-(3,4-dichlorobenzyl)-4-piperidinyl]acetamide]: the melting point was determined as 170 °C.

For the compound `O=C(CSc1ccccc1)NC1CCN(Cc2ccc(Cl)c(Cl)c2)CC1` [Example 98], the melting point was in the range of 97 to 99 °C.

Turning to `O=C(Cc1ccc(F)cc1)NC1CCN(Cc2ccc(Cl)c(Cl)c2)CC1` [Example 99, N-[1-(3,4-Dichlorobenzyl)-4-piperidinyl]-2-(4-fluorophenyl)acetamide], the melting point is 144 to 147 °C.

Turning to `O=C(Cc1csc(-c2cnccn2)n1)NC1CCN(Cc2ccc(Cl)c(Cl)c2)CC1` [Example 100, N-[1-(3,4-Dichlorobenzyl)-4-piperidinyl]-2-[2-(2-pyrazinyl)-1,3-thiazol-4-yl]acetamide], the melting point was in the range of 186 to 189 °C.

In turn, `O=C(CSc1ncc(-c2ccccc2)cn1)NC1CCN(Cc2ccc(Cl)c(Cl)c2)CC1` [Example 101, N-[1-(3,4-Dichlorobenzyl)-4-piperidinyl]-2-[(5-phenyl-2-pyrimidinyl)sulfanyl]acetamide] registered a melting point of 157 °C.

`O=C(CCc1nc(-c2ccccn2)no1)NC1CCN(Cc2ccc(Cl)c(Cl)c2)CC1` [Example 102, N-[1-(3,4-Dichlorobenzyl)-4-piperidinyl]-3-[3-(2-pyridinyl)-1,2,4-oxadiazol-5-yl]propanamide] displayed a melting point of 155 °C.

`Clc1ccc(CN2CCC(Nc3nc4ccccc4[nH]3)CC2)cc1Cl` [Example 103, N-[1-(3,4-Dichlorobenzyl)-4-piperidinyl]-1H-benzimidazol-2-amine] displayed a melting point of 125 °C.

For the compound `O=C(Nc1ccc(Cl)c(Cl)c1)NC1CCN(Cc2ccc(Cl)c(Cl)c2)CC1` [Example 105, N-[1-(3,4-Dichlorobenzyl)-4-piperidinyl]-N′-(3,4-dichlorophenyl)urea], the melting point was 189 to 190 °C.

As to `COc1cccc(NC(=O)NC2CCN(Cc3ccc(Cl)c(Cl)c3)CC2)c1` [Example 106, N-[1-(3,4-Dichlorobenzyyl)-4-piperidinyl]-N′-(3-methoxyphenyl)urea], the melting point lay within 178 to 179 °C.

As for `O=C(Cc1nc(-c2ccccn2)no1)NC1CCN(Cc2ccc(Cl)c(Cl)c2)CC1` [Example 359, N-[1-(3,4-Dichlorobenzyl)-4-piperidinyl]-2-[3-(2-pyridinyl)-1,2,4-oxadiazol-5-yl]acetamide], the melting point came out at 145 °C.

Regarding `O=C(CCc1nc(-c2ccccn2)no1)NC1CCN(Cc2ccc(F)c(Cl)c2)CC1` [Example 362, N-[1-(3-Chloro-4-fluorobenzyl)-4-piperidinyl]-3-[3-(2-pyridinyl)-1,2,4-oxadiazol-5-yl]propanamide], the melting point is 150 °C.

As for `O=C(CCc1nc(-c2ccccn2)no1)NC1CCN(Cc2ccc(Cl)c(F)c2)CC1` [Example 363, N-[1-(4-Chloro-3-fluorobenzyl)-4-piperidinyl]-3-[3-(2-pyridinyl)-1,2,4-oxadiazol-5-yl]propanamide], the melting point worked out at 132 °C.
